Here are results for 27 compounds from article PMC6523444, “Antioxidant Activities of Alkyl Substituted Pyrazine Derivatives of Chalcones—In Vitro and In Silico Study” (Antioxidants, 2019).

A short description of series [1]: MTS cytotoxicity assay, overnight, HepG2. It counts as cell-based. The conditions noted are these: human, HepG2 cells, concentration range 100–0.2 µM. The method, then: (§1) Adherent liver hepatocellular carcinoma cell line HepG2 (ATCC, HB-8065) and human acute monocytic leukemia cell line in suspension THP-1 (ATCC, TIB-202) were purchased from American Type Culture Collection (ATCC, Manassas, VA, USA). Cell lines were maintained in complete DMEM/F12 medium (Sigma, D8437, St. Louis, MO, USA) and complete RPMI1640 (Sigma, R7388, St. Louis, MO, USA) respectively, supplemented with 10% Fetal Calf Serum (FCS, Sigma, F7524, St. Louis, MO, USA) at 37 °C in 5% CO2 atmosphere.
(§2) A cytotoxicity assay was performed using MTS CellTiter 96 AQueous One Solution Cell Proliferation Assay (Promega, G3580, Madison, WI, USA). Double dilutions of compounds were prepared in the concentration range of 100–0.2 µM within microplate wells. In each well, 5 × 10^4 cells were added and the plates were incubated overnight at 37 °C in 5% CO2 atmosphere. Following this, 10 µL of MTS (3-(4,5-dimethylthiazol-2-yl)-5-(3-carboxymethoxyphenyl)-2-(4-sulfophenyl)-2H -tetrazolium) reagent was dispensed per well and the plates were incubated for 1–6 h at 37 °C in 5% CO2 atmosphere. Control wells consisted of media only (blank) or cells with 1% DMSO added (control). The absorbance was recorded at 490 nm using a Wallac Victor2 microplate reader (PerkinElmer, Waltham, MA, USA). Results were analyzed in GraphPad Prism software (GraphPad Software, San Diego, CA, USA).

Series [2] is described as follows: MTS cytotoxicity assay, overnight, THP-1. It counts as cell-based, human. The note with it: human, THP-1 cells, overnight, concentration range 100–0.2 µM. As for the experimental part: as §1, §2
The nature of series [3]: DPPH• radical scavenging assay. The note with it: 100 µM DPPH•, 30 min, room temperature, dark; read-out: DPPH● radical scavenging (RS) activity IC50. The method, then: Vitamin C (Acros Organics, Geel, Belgium) was used as a standard antioxidant control and was prepared in the same way as tested compounds. Dilutions of tested compounds and vitamin C were prepared in a final concentration range of 1 mM–0.01 μM. One milliliter of compound solution was added to 1 mL of freshly prepared DPPH• solution (3.9 mg/50 mL ethanol; final concentration of 100 µM) and the reaction mixture was incubated in the dark at room temperature for 30 min. Absorbance was recorded at 540 nm using a 96-well Wallac Victor2 plate reader. Neutralization of DPPH• radical by a compound was calculated according to the following formula:RS activity (%) = [(A0 − A1)/A0] × 100(1) where A0/A1 is the control/sample absorbance. The results were averages of three measurements. The IC50 value was calculated using GraphPad Prism software (GraphPad Software, San Diego, CA, USA).

On the set-up of series [4]: method as in doi:10.1627/jpi.51.298. The conditions noted are these: oxygen atmosphere, 50 °C, compared with para-coumaric acid fragment; cited from earlier work.
Another series concerns aldose reductase ALR2. Set-up: method as in doi:10.1007/s00706-018-2146-6. The conditions noted are these: cited from earlier work.
Series [5] has as its system THP-1 cells treated by H2O2. Nature of the series: Growth of THP-1 cells pre- or post-treated with H2O2, trypan blue exclusion assay. It counts as cell-based, human. The conditions noted are these: for Effect against cytotoxic / pro-oxidative activity of H2O2 on THP-1 cells: compound at DPPH• IC50 concentration, before or after 5 mM H2O2; for Recovery of THP-1 cells after initial damage: from the 48 h point, H2O2 plus compound. As for the experimental part: The substances without cytotoxic effects and with RS activity were tested for antioxidant potential at the cellular level using THP-1 cells treated by H2O2 [28]. The cells were exposed to the IC50 concentrations of the compounds determined by the DPPH• assay. Compounds were applied 30 min either before or after exposure to 5 mM of H2O2, which is equivalent to the cytotoxic ED50 dose of H2O2 for the THP-1 cells. The cell growth was analyzed every 24 h, via the trypan blue exclusion assay using a Bürker-Türk hemocytometer (Brand GMBH + CO KG, Wertheim, Germany), during a 4-day period. All assays were carried out in triplicates. The comparison of mean values was done by the two-tailed Student’s t-test.

The subject of the next series is THP-1. Nature of the series: MTS cytotoxicity assay, overnight, THP-1. It counts as cell-based, human. The conditions noted are these: up to 100 μM overnight. The method, then: as §1, §2
For a further series, the system named is THP-1 cells. The conditions noted are these: cited from earlier work.
For series [6], the system named is cell lines A549, PC3, MCF-7, HT-29 and WRL68. More on the design: method as in PMID 22634834. The note with it: cited from earlier work.

In the case of `COc1cc(/C=C/C(=O)c2ccccc2)ccc1O` [Compound 4], the IC50 in [1] and in series [2] was more than 100 µM in each case.

Consider `CC(C)Cc1cnc(C(=O)/C=C/c2ccccc2O)cn1` [Compound 1e], for which the IC50 in [1] is more than 100 µM; in series [2], 94 µM.

In the case of `CC(C)(C)c1cnc(C(=O)/C=C/c2cccc(O)c2)cn1` [Compound 2f], the IC50 in series [1] and in [2] was more than 100 µM in each case.

`O=C(/C=C/c1ccccc1O)c1cnccn1` [Compound 1a]: the IC50 in series [1] was more than 100 µM; in [2], 40 µM; in series [3] it was more than 1000 µM. Besides, the “RS activity in styrene auto-oxidation” value in [4] was “significant RS activity”.

Consider `CC(C)c1cnc(C(=O)/C=C/c2ccc(O)cc2)cn1` [Compound 3c], for which the results for the IC50 in [1], in series [2] and in [3] were more than 100 µM, 78 µM and more than 1000 µM, respectively.

With `CC(C)Cc1cnc(C(=O)/C=C/c2ccc(O)cc2)cn1` [Compound 3e], the IC50 in [1] and in [2] was more than 100 µM throughout.

For the compound `CCCc1cnc(C(=O)/C=C/c2cccc(O)c2)cn1` [Compound 2b], the IC50 was more than 100 µM in series [1] and 48 µM in series [2].

Take `O=C(/C=C/c1ccc(O)cc1)c1cnccn1` [Compound 3a]: the IC50 is more than 100 µM in [1], 97 µM in series [2] and more than 1000 µM in series [3]. Further, the “RS activity in styrene auto-oxidation” value in [4] is reported as “significant RS activity”. The ALR2 inhibition activity result with aldose reductase ALR2 is on record as “moderate ALR2 inhibition activity”.

On to `CCCCc1cnc(C(=O)/C=C/c2ccc(O)cc2)cn1` [Compound 3d], for which the IC50 was more than 100 µM in series [1], 83 µM in series [2] and more than 1000 µM in [3].

For the compound `CC(C)Cc1cnc(C(=O)/C=C/c2cccc(O)c2)cn1` [Compound 2e], the IC50 in [1] and in series [2] was more than 100 µM in each case.

Consider `CCCc1cnc(C(=O)/C=C/c2ccccc2O)cn1` [Compound 1b], for which the IC50 in series [1] and in series [2] was more than 100 µM in each case.

In the case of `COc1cc(/C=C/C(=O)c2cnc(CC(C)C)cn2)ccc1O` [Compound 4e], the “Effect of the pure substance on the growth of THP-1 cells” value in series [5] (compound alone at its DPPH• IC50 concentration, 96 h, Figure 2a) is reported as “no considerable effects”. In [5], the “Effect against cytotoxic / pro-oxidative activity of H2O2 on THP-1 cells” value is “greater attenuation of H2O2 effects”. The “Recovery of THP-1 cells after initial damage” value in series [5] is “considerably greater”. Moreover, the IC50 in [1] was more than 100 µM; in series [2], more than 100 µM; in series [3] it was 46 µM. The “Cytotoxicity on THP-1 cells, in words” value with THP-1 was “non-toxic”.

As for `CC(C)(C)c1cnc(C(=O)/C=C/c2ccccc2O)cn1` [Compound 1f], the IC50 in series [1] and in series [2] was more than 100 µM in each case.

Take `CC(C)(C)c1cnc(C(=O)/C=C/c2ccc(O)cc2)cn1` [Compound 3f]: the IC50 in [1] and in [2] was more than 100 µM in each case.

Consider `CC(C)c1cnc(C(=O)/C=C/c2cccc(O)c2)cn1` [Compound 2c], for which the values for the IC50 in series [1], in [2] and in series [3] were 97 µM, 83 µM and more than 1000 µM, respectively.

Take `COc1cc(/C=C/C(=O)c2cnc(C(C)C)cn2)ccc1O` [Compound 4c]: the “Attenuation of H2O2 effect on THP-1 cells, compound added before H2O2” value in series [5] (compound at DPPH• IC50 concentration 30 min before 5 mM H2O2, 4 days) was “most efficient reduction of cytotoxic effect of H2O2”. Also, the “Effect against cytotoxic / pro-oxidative activity of H2O2 on THP-1 cells” value in [5] is on record as “greater attenuation of H2O2 effects”. Further, the “Recovery of THP-1 cells after initial damage” value in series [5] is on record as “considerably greater”. Further, the values for the IC50 in [1], in series [2] and in series [3] were more than 100 µM, more than 100 µM and 39 µM, respectively. The “Cytotoxicity on THP-1 cells, in words” value in the series on THP-1 is reported as “non-toxic”.

Take `CC(C)c1cnc(C(=O)/C=C/c2ccccc2O)cn1` [Compound 1c]: the IC50 in series [1] was more than 100 µM; in [2], 96 µM; in [3], more than 1000 µM.

For `COc1cc(/C=C/C(=O)c2cnc(C(C)(C)C)cn2)ccc1O` [Compound 4f], the IC50 in series [1] is more than 100 µM; in series [2], 36 µM.

For the compound `OO` [Compound H2O2, hydrogen peroxide], the “Cytotoxic ED50 dose for THP-1 cells” value with THP-1 cells was 5000 µM.

Consider `CCCc1cnc(C(=O)/C=C/c2ccc(O)cc2)cn1` [Compound 3b], for which the IC50 in series [1] is more than 100 µM; in [2], 94 µM.

As to `O=C(/C=C/c1cccc(O)c1)c1cnccn1` [Compound 2a], the IC50 was 100 µM in [1], 50 µM in series [2] and more than 1000 µM in series [3]. In addition, the ALR2 inhibition activity entry in the series on aldose reductase ALR2 is “moderate ALR2 inhibition activity”.

For the compound `CCCCc1cnc(C(=O)/C=C/c2cccc(O)c2)cn1` [Compound 2d], the IC50 was more than 100 µM in series [1], 67 µM in series [2] and more than 1000 µM in series [3].

As for `O=C(/C=C/c1ccccc1O)c1ccccc1` [Compound 1], the IC50 in series [1] is more than 100 µM; in [2] it was 70 µM; in series [3], more than 1000 µM.

Take `O=C(/C=C/c1ccc(O)cc1)c1ccccc1` [Compound 3]: the IC50 is more than 100 µM in series [1], more than 100 µM in series [2] and more than 1000 µM in [3]. Besides, the ALR2 inhibition activity entry with aldose reductase ALR2 is reported as “comparable ALR2 inhibition”. For the same compound, the “Cytotoxicity against A549, PC3, MCF-7, HT-29 and WRL68” value in series [6] is listed as “significant cytotoxicity”.

For `COc1cc(/C=C/C(=O)c2cnccn2)ccc1O` [Compound 4a], the “Effect against cytotoxic / pro-oxidative activity of H2O2 on THP-1 cells” value in series [5] was “lowest effect”. Moreover, the IC50 in series [1] was more than 100 µM; in series [2], more than 100 µM; in [3] it was 186 µM. Further, in the series on THP-1, the “Cytotoxicity on THP-1 cells, in words” value is recorded as “non-toxic”. Also, the “RS activity in styrene auto-oxidation” value in series [4] was “significant RS activity”.

Consider `CCCCc1cnc(C(=O)/C=C/c2ccccc2O)cn1` [Compound 1d], for which the figures for the half-inhibitory concentration (IC50) in series [1], in [2] and in series [3] were 86 µM, 27 µM and more than 1000 µM, respectively.

`O=C(/C=C/c1cccc(O)c1)c1ccccc1` [Compound 2]: the IC50 was more than 100 µM in [1], 51 µM in series [2] and more than 1000 µM in series [3].
